In paper PMC11219860, “A chemogenetic approach for dopamine imaging with tunable sensitivity” (Nature Communications, 2024):

How the values were obtained:
dLight1.3bL143I = dLight1.3bL143I (Homo sapiens, UniProt P21728, L143I); assay: cell-based; format: cell-based
Experimental: (§1) Cells were transfected at 50–60% confluency in glass-bottomed dishes (either individually or in 24-well plates) using the Effectene transfection kit (Qiagen) according to manufacturer instructions, and imaged 24–48 h after transfection. The Flp-In™ T-REx™ 293 cells (Thermo Fisher) with a stably integrated dLight1.3b cassette[48] were cultured as follows: the cells were cultured using HEK293T cell medium with the addition of Blasticidin (15 µg/ml) and Hygromycin B (200 µg/ml). To induce the expression of dLight1.3b, doxycycline (500 ng/ml) was added to the culture medium for 24–48 hours. Before imaging, cells were rinsed with 1 mL of Hank’s Balanced Salt Solution (HBSS, Life Technologies) supplemented with Ca^2+ (2 mM) and Mg^2+ (1 mM), and imaged at room temperature with a final HBSS volume of either 100 µL for each individual 1.5 cm glass bottom dish, or 500 µL for 24-well plates. Time-lapse imaging was performed on an inverted Zeiss LSM 800 confocal microscope using a 488 nm laser and a 40X oil-based objective. During imaging, ligands were added in bolus on the cells using a micropipette to reach the final specified concentrations of ligand over the cells. For quantification, except otherwise noted, regions of interest (ROI) were selected manually using the threshold function of Fiji to isolate the cell membrane. Sensor response (∆F/F) was calculated as the following: (F(t)-F_base)/F_base with F(t) being the ROI fluorescence value at each time point (t), and F_base being the mean fluorescence of the 10-time points immediately prior to ligand addition.

AlloLite-ctr = AlloLite-ctr (Homo sapiens, UniProt P21728, L143A/R130Q); format: cell-based
Experimental: as §1, with “Time-lapse imaging was performed on an inverted Zeiss LSM 800 confocal microscope using a 488 nm laser and a 40X oil-based objective. During imaging, ligands were added in bolus on the cells using a micropipette to reach the final specified concentrations of ligand over the cells.” left out

dLight1.3b = assay: In vivo photometry of optogenetically-evoked DA release in PFC; design: species or system mouse; conditions: DETQ 10 mg/kg i.p.
Experimental: Fiber photometry combined with optogenetics was conducted using a RZ10X LUX-I/O Processor with integrated LEDs (Tucker-Davis Technologies) combined with a filter/mirror minicube set (FMC6_IE(400-410)_E1(467-497)_F1(507-554)_E2(566-586)_F2(600-680)_S) (Doric Lenses). […] Low-autofluorescence patch cords (400 µm/0.57 NA, Doric) were attached to the optic fibers (400 µm/0.66 NA, Doric) on the mouse’s head to collect fluorescence emissions. Signals were filtered through 500–540 nm GFP emission filters coupled to a photodetector on the RZ10X. […] Data were sampled at 1017.3 Hz. […] For optogenetic stimulation, a 635 nm LED was passed through the 580–680 nm minicube F2 port and reached the mouse through the same unique optic fiber; the LED was driven at 1 to 3 mW. To determine the ‘temporal window for stable imaging’ in the PFC using dLight1.3b recordings, DAT^IREScre mice expressing ChrimsonR in VTA DA axons and dLight1.3b in the PFC were injected i.p. with vehicle at 0 min, followed by DETQ (10 mg/kg) 25 min later. After each injection, PFC DA axons were optically (opto) activated across 5 trials (2 s, 20 Hz, 20-ms pulses) for the vehicle (20 min) and […] for DETQ (1h05 min) every 5 min. DA release was measured with fiber photometry. In another session, the same mice were injected with Veh, then DETQ (10 mg/kg) 20 min later, then cocaine (20 mg/kg) 25 min later, and the same optogenetic protocol was applied (2 s, 20 Hz, 20-ms pulses every 5 min). For optogenetic validation of AlloLite-ctr in the NAc, DAT^IREScre mice expressing ChrimsonR in VTA DA axons were injected i.p. with vehicle (Day 1) or DETQ (10 mg/kg) (Day 8) at 0 min, followed by cocaine (20 mg/kg) 20 min later. After each injection, NAc DA axons were optically (opto) activated across 3 trials (2 s, 20 Hz, 20-ms pulses) every 5 min and DA released measured with fiber photometry. […] After each injection, NAc DA axons were optically (opto) inhibited (10 s, continuous trials) every 3 min (8 trials/condition) and DA released measured with fiber photometry. […] DA release was measured with fiber photometry.
For long-term recordings during optogenetic stimulation or chemogenetic inhibition linear fit was calculated across the entire recording or across the vehicle epoch; for event-related experiments fit was performed on fluorescent data obtained in the −60 to +60 s around opto events or −5 to −1 s around behavioral events. […] DA event-related responses were quantified by computing the value at the transient’s peak value and the AUC in the 0 to 10 s or 0 to 60 s period post-event onset. […] The maximal peak value of Veh-normalized ΔF/F0 after opto-onset was plotted over time and the plateau of maximal response was determined by averaging peak opto responses 5, 10, 15 and 20 min post-DETQ. […]

[1] = DA 100 µM, wide range of DETQ concentrations

Chain of dLight1.3bL143I (P21728 whole entry L143I, looked up): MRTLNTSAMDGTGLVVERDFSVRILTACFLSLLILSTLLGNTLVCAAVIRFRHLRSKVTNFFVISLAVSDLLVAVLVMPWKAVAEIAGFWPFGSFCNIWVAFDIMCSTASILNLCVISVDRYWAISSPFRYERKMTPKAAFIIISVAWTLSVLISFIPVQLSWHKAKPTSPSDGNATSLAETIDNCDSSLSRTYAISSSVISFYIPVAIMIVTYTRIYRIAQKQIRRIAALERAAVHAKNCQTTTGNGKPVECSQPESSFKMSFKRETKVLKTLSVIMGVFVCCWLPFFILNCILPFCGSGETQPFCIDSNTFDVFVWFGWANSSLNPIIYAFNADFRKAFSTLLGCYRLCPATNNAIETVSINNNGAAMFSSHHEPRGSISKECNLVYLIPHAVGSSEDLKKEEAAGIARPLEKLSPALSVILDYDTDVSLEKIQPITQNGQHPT

SMILES: C[C@H]1c2cccc(C(C)(C)O)c2C[C@H](CO)N1C(=O)Cc1c(Cl)cccc1Cl [DETQ, 2-(2,6-dichlorophenyl)-1-((1S,3R)-3-(hydroxymethyl)-5-(2-hydroxypropan-2-yl)-1-methyl-3,4-dihydroisoquinolin-2(1H)-yl)ethan-1-one]
- Kb (dLight1.3bL143I): 17.7 nM
- sensor response to DETQ in the absence of DA (dLight1.3bL143I): could not trigger a response
- α factor (dLight1.3bL143I): 10.8
- maximal fluorescent response to a saturating concentration of DA (dLight1.3bL143I; [1]): not affected
- increase in DETQ potency versus dLight1.3b (dLight1.3bL143I; human, hek293 cells): 3 fold
- α factor (AlloLite-ctr): 1.6
- maximal fluorescent response to a saturating concentration of DA (AlloLite-ctr; [1]): not affected
- duration of stable increase in DA sensitivity (dLight1.3b): 31 min
- opto-evoked DA signal amplitude (dLight1.3b): clear and significant increase
- opto-evoked DA signal decay time (dLight1.3b): clear and significant increase
